In patent publication US20120121670A1, “POLYARGININE NANOCAPSULES” (priority 2009, published 2012):
pIC50: −log10 of the molar value.

Tested on: NCI-H460 lung cancer cell line
Experiment: Cell proliferation inhibition
Format: cell-based
Conditions: Homo sapiens, docetaxel concentration, Graph Pad Prism 2.1, read-out: IC50 (concentration at which the proliferation of 50% of the population is inhibited)
Method: The % of cell viability at different concentrations of DCX is depicted for polyarginine NC, DCX in solution, polyarginine/DCX NC.
In order to evaluate the potential of the PArg nanocapsules encapsulating the docetaxel cytostatic molecule to inhibit the cell proliferation of the NCI-H460 lung cancer cell line the nanocapsules were prepared according to the method described in Example 3. The results shown in FIG. 9 show the great proliferation inhibition capacity of the nanocapsules encapsulating docetaxel in comparison with the free molecule. […] The IC50 values, concentration at which the proliferation of 50% of the population is inhibited, were calculated by means of the Graph Pad Prism 2.1 program (Graph Pad Software).

pIC50: 7.87
Structure (SMILES): CC(=O)O[C@@]12CO[C@@H]1C[C@H](O)[C@@]1(C)C(=O)[C@H](O)C3=C(C)[C@@H](OC(=O)[C@H](O)[C@@H](NC(=O)OC(C)(C)C)c4ccccc4)C[C@@](O)([C@@H](OC(=O)c4ccccc4)[C@H]21)C3(C)C [docetaxel solution, docetaxel]
